Experimental findings from patent US20250361230A1, “LATS Inhibitors and Uses Thereof” (The USA, as Represented by the Secretary, Dept. of Heath …, priority 2022, published 2025) are described below.

Structures are written as SMILES. Read-outs that look alike come from different tables or passages of the source.

Format in all cases: biochemical
One experiment has as its target T1, LATS1 (Homo sapiens, UniProt O95835).
T1 sequence (O95835 1-1130): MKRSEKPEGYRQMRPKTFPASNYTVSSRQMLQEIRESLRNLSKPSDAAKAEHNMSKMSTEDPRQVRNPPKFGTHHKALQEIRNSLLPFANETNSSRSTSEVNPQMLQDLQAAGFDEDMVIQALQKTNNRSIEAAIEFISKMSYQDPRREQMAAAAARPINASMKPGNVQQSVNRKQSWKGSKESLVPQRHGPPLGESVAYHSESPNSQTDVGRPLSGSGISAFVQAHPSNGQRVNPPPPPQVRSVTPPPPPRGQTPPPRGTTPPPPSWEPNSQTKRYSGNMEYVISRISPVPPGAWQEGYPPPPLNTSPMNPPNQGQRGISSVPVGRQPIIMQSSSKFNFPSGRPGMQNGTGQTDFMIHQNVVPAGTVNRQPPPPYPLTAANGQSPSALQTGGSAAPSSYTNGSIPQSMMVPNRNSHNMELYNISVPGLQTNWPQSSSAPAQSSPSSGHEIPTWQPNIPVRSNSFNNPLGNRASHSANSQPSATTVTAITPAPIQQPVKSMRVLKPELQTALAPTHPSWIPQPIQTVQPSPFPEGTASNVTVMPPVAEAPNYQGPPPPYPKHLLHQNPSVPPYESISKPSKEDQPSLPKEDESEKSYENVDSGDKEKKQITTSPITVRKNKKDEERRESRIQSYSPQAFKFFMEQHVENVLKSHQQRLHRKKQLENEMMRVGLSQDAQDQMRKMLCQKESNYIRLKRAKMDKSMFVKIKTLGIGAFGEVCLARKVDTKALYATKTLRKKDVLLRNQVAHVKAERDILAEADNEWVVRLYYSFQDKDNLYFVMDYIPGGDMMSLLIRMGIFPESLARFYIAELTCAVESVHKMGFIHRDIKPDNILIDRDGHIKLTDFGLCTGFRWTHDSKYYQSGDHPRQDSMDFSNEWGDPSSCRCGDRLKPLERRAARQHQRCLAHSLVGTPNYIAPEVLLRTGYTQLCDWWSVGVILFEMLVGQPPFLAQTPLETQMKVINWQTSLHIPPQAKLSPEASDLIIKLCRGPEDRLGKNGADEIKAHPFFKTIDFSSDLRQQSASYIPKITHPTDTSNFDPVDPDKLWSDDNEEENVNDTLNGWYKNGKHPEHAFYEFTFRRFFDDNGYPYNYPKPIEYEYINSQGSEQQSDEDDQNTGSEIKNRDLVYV
The experiment in a line: RBC HotSpot kinase assay (33P-ATP, P81 filter-binding), LATS1. The note with it: read-out: LATS1 IC50. In a few lines:
(§1)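 Hepes pH 7.5/MgCl2/EGTA/Brij35/BSA/Na3VO4/DTT buffer, cofactors per kinase; cpd acoustically dispensed, 20 min preinc RT; start w/ 33P-ATP, 2 h RT; P81 filter readout; 10-pt singlet IC50.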

The target in another experiment is T2, LATS2 (Homo sapiens, UniProt Q9NRM7).
T2 sequence (Q9NRM7 1-1088): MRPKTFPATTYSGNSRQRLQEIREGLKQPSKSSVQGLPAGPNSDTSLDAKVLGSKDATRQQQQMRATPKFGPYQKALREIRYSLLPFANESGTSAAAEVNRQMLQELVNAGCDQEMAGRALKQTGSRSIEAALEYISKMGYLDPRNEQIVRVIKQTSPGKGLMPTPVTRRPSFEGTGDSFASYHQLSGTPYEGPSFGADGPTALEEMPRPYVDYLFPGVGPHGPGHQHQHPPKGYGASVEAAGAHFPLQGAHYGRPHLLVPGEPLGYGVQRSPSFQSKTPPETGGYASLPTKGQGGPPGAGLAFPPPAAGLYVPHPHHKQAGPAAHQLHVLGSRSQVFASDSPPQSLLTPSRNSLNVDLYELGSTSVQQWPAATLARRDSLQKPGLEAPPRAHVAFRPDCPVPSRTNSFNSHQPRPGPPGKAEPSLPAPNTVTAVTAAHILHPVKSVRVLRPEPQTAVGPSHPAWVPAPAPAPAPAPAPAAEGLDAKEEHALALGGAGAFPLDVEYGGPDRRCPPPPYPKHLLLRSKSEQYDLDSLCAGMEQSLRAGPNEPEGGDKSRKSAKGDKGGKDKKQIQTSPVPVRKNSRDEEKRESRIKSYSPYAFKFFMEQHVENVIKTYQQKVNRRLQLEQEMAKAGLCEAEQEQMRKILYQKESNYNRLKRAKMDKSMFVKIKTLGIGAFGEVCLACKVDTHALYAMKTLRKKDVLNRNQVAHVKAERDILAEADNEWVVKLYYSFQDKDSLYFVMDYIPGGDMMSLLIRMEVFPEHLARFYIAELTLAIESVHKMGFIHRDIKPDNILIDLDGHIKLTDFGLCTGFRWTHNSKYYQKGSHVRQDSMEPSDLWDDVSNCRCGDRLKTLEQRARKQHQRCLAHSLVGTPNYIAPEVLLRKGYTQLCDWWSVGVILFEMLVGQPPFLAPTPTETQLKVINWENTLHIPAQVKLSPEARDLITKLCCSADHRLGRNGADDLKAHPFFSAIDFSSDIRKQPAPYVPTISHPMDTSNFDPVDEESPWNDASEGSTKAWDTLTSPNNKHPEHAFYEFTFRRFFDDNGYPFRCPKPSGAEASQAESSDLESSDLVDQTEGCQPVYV
Briefly: RBC HotSpot kinase assay (33P-ATP, P81 filter-binding), LATS2. The note with it: read-out: LATS2 IC50. In a few lines: as §1

For another experiment, the target named is AKT (Homo sapiens, UniProt P31749). The experiment in a line: RBC HotSpot kinase assay (33P-ATP, P81 filter-binding), AKT. The note with it: read-out: AKT IC50. An outline of the steps:
as §1

Where [1] appears, read: Table 32, biochemical kinase assay.

Sequence of AKT (P31749 whole entry): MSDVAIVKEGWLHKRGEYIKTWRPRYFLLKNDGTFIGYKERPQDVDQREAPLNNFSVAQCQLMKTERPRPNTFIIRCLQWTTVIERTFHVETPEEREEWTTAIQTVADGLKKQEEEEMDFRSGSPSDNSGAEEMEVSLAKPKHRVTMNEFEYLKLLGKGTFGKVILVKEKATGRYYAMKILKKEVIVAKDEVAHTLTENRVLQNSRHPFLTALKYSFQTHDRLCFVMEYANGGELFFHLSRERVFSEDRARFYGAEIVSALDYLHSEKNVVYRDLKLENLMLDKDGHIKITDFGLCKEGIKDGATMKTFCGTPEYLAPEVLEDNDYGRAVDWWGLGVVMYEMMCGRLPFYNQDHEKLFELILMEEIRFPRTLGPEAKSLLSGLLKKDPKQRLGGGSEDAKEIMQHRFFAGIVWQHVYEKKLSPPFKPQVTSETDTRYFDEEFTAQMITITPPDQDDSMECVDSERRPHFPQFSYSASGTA

By IC50 is commonly meant the concentration needed to halve the response being measured. `O=C(CO)NCC(O)(c1ccc(Cl)cc1)c1ccc(-c2ccnc3[nH]ccc23)cc1` (stereo not drawn) [Compound 1015, N-(2-(4-(1H-pyrrolo[2,3-b]pyridin-4-yl)phenyl)-2-(4-chlorophenyl)-2-hydroxyethyl)-2-hydroxyacetamide]: the results for the IC50 at LATS1 (setting [1]), on LATS2 (setting [1]) and at AKT (setting [1]) were 4 nM, 3.7 nM and 5.9 nM, respectively.
For the compound `O=C(CO)NCC(O)(c1ccc(Cl)cc1)c1ccc(-c2ccnc3[nH]cc(F)c23)cc1` (stereo not drawn) [Compound 1016, N-(2-(4-chlorophenyl)-2-(4-(3-fluoro-1H-pyrrolo[2,3-b]pyridin-4-yl)phenyl)-2-hydroxyethyl)-2-hydroxyacetamide], the IC50 at LATS1 (setting [1]) stood at 7 nM; on LATS2 (setting [1]) it was 4 nM; at AKT (setting [1]) it was 7.4 nM.
For `O=C(CO)NCC(O)(c1ccc(Cl)cc1)c1ccc(-c2ccnc3[nH]cc(Cl)c23)cc1` (stereo not drawn) [Compound 1017, N-(2-(4-(3-chloro-1H-pyrrolo[2,3-b]pyridin-4-y1)phenyl)-2-(4-chlorophenyl)-2-hydroxyethyl)-2-hydroxyacetamide], in that order: 5.4 nM, 2.8 nM and 2.8 nM.
For `CC(C)(O)C(=O)NCC(O)(c1ccc(Cl)cc1)c1ccc(-c2ccnc3[nH]ccc23)cc1` (stereo not drawn) [Compound 1018, N-(2-(4-(1H-pyrrolo[2,3-b]pyridin-4-yl)phenyl)-2-(4-chlorophenyl)-2-hydroxyethyl)-2-hydroxy-2-methylpropanamide], the IC50 on LATS1 (setting [1]) came to 18.7 nM; at LATS2 (setting [1]), 10.1 nM; on AKT (setting [1]), 73.6 nM.
Take `CN(C)CC(=O)NCC(O)(c1ccc(Cl)cc1)c1ccc(-c2ccnc3[nH]ccc23)cc1` (stereo not drawn) [Compound 1019, N-(2-(4-(1H-pyrrolo[2,3-b]pyridin-4-yl)phenyl)-2-(4-chlorophenyl)-2-hydroxyethyl)-2-(dimethylamino) acetamide]: the half-inhibitory concentration (IC50) on LATS1 (setting [1]) was 4 nM; on LATS2 (setting [1]), 5.6 nM; on AKT (setting [1]) it was 5.4 nM.
For `NCC(=O)NCC(O)(c1ccc(Cl)cc1)c1ccc(-c2ccnc3[nH]ccc23)cc1` (stereo not drawn) [Compound 1020, N-(2-(4-(1H-pyrrolo[2,3-b]pyridin-4-yl)phenyl)-2-(4-chlorophenyl)-2-hydroxyethyl)-2-aminoacetamide], the figures for the IC50 on LATS1 (setting [1]), on LATS2 (setting [1]) and on AKT (setting [1]) were 3 nM, 2.4 nM and 1.4 nM, respectively.
Regarding `O=C(CP(=O)(O)O)NCC(O)(c1ccc(Cl)cc1)c1ccc(-c2ccnc3[nH]ccc23)cc1` (stereo not drawn) [Compound 1022, (2-((2-(4-(1H-pyrrolo[2,3-b]pyridin-4-yl)phenyl)-2-(4-chlorophenyl)-2-hydroxyethyl)amino)-2-oxoethyl) phosphonic acid], the IC50 at LATS1 (setting [1]) worked out at 9.6 nM; at LATS2 (setting [1]), 12 nM; at AKT (setting [1]), 3.1 nM.
For `O=C(NCC(O)(c1ccc(Cl)cc1)c1ccc(-c2ccnc3[nH]ccc23)cc1)[C@@H]1CCCN1` (stereo partly drawn) [Compound 1023, (2S)—N-(2-(4-(1H-pyrrolo[2,3-b]pyridin-4-yl)phenyl)-2-(4-chlorophenyl)-2-hydroxyethyl)pyrrolidine-2-carboxamide], in that order: 3.4 nM, 4.6 nM and 9.2 nM.
On the same counts, the results for `O=C(NCC(O)(c1ccc(Cl)cc1)c1ccc(-c2ccnc3[nH]ccc23)cc1)[C@H]1CCCN1` (stereo partly drawn) [Compound 1024, (2R)-N-(2-(4-(1H-pyrrolo[2,3-b]pyridin-4-yl)phenyl)-2-(4-chlorophenyl)-2-hydroxyethyl)pyrrolidine-2-carboxamide] are 3.7 nM, 2.4 nM and 5.6 nM.
As to `NCC(=O)NCC(=O)NCC(O)(c1ccc(Cl)cc1)c1ccc(-c2ccnc3[nH]ccc23)cc1` (stereo not drawn) [Compound 1025, N-(2-(4-(1H-pyrrolo[2,3-b]pyridin-4-yl)phenyl)-2-(4-chlorophenyl)-2-hydroxyethyl)-2-(2-aminoacetamido)acetamide], the IC50 at LATS1 (setting [1]) turned out to be 4.1 nM; on LATS2 (setting [1]), 4.5 nM; on AKT (setting [1]), 3.1 nM.
Turning to `C[C@H](N)C(=O)NCC(O)(c1ccc(Cl)cc1)c1ccc(-c2ccnc3[nH]ccc23)cc1` (stereo partly drawn) [Compound 1026, (2S)-N-(2-(4-(1H-pyrrolo[2,3-b]pyridin-4-yl)phenyl)-2-(4-chlorophenyl)-2-hydroxyethyl)-2-aminopropanamide], the IC50 on LATS1 (setting [1]) came out at 3.8 nM; at LATS2 (setting [1]), 2.3 nM; at AKT (setting [1]) it was 1.2 nM.
Turning to `CNCC(=O)NCC(O)(c1ccc(Cl)cc1)c1ccc(-c2ccnc3[nH]ccc23)cc1` (stereo not drawn) [Compound 1027, N-(2-(4-(1H-pyrrolo[2,3-b]pyridin-4-yl)phenyl)-2-(4-chlorophenyl)-2-hydroxyethyl)-2-(methylamino)acetamide], the results for the IC50 at LATS1 (setting [1]), on LATS2 (setting [1]) and on AKT (setting [1]) were 4.1 nM, 3 nM and 1.3 nM, respectively.
On the same counts, the results for `CC(C)(N)C(=O)NCC(O)(c1ccc(Cl)cc1)c1ccc(-c2ccnc3[nH]ccc23)cc1` (stereo not drawn) [Compound 1028, N-(2-(4-(1H-pyrrolo[2,3-b]pyridin-4-yl)phenyl)-2-(4-chlorophenyl)-2-hydroxyethyl)-2-amino-2-methylpropanamide] are 1.9 nM, 2.4 nM and 1.9 nM.
`NCC(=O)NCC(O)(c1ccc(Cl)cc1)c1ccc(-c2ccnc3[nH]cc(F)c23)cc1` (stereo not drawn) [Compound 1029, 2-amino-N-(2-(4-chlorophenyl)-2-(4-(3-fluoro-1H-pyrrolo[2,3-b]pyridin-4-yl)phenyl)-2-hydroxyethyl)acetamide]: the IC50 stood at 2.6 nM at LATS1 (setting [1]), 1.3 nM on LATS2 (setting [1]) and 0.7 nM at AKT (setting [1]).
With `CN(CC(O)(c1ccc(Cl)cc1)c1ccc(-c2ccnc3[nH]ccc23)cc1)C(=O)CN` (stereo not drawn) [Compound 1030, N-(2-(4-(1H-pyrrolo[2,3-b]pyridin-4-yl)phenyl)-2-(4-chlorophenyl)-2-hydroxyethyl)-2-amino-N-methylacetamide], the IC50 was found to be 4.4 nM on LATS1 (setting [1]), 5.1 nM on LATS2 (setting [1]) and 1.1 nM on AKT (setting [1]).
For the compound `N#Cc1c[nH]c2nccc(-c3ccc(C4(O)CCNCC4)cc3)c12` [Compound 2001, 4-(4-(4-hydroxypiperidin-4-yl)phenyl)-1H-pyrrolo[2,3-b]pyridine-3-carbonitrile], the results for the IC50 on LATS1 (biochemical kinase inhibition), on LATS2 (biochemical kinase inhibition) and on AKT (biochemical kinase inhibition) were 3.3 nM, 3.3 nM and 278 nM, respectively.
